This test relates to CD2F1 mice, L1210 leukemia ip, survival T/C. The test can be described thus: NCI In Vivo Anticancer Drug Screen. Data for tumor model L1210 Leukemia (intraperitoneal) in CD2F1 (CDF1) mice. To be noted: higher = longer survival. The procedure, abridged:
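Each value reflects a quotient of treated over vehicle control outcomes in mice with a transplanted tumor.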

Setting [1] is: endpoint: mean survival time, dose: 12.5 mg/kg/injection, schedule: Q01DX009 (ip), vehicle: saline with Tween-80.
The mark [2] stands for this setting: endpoint: mean survival time, dose: 25.0 mg/kg/injection, schedule: Q01DX009 (ip), vehicle: saline with Tween-80.
Where [3] appears, read: endpoint: mean survival time, dose: 50.0 mg/kg/injection, schedule: Q01DX009 (ip), vehicle: saline with Tween-80.
Setting [4] is: endpoint: mean survival time, dose: 200.0 mg/kg/injection, schedule: Q01DX009 (ip), vehicle: saline with Tween-80.
The mark [5] stands for this setting: endpoint: mean survival time, dose: 100.0 mg/kg/injection, schedule: Q04DX003 (ip), vehicle: saline with Tween-80.
Setting [6] is: endpoint: mean survival time, dose: 200.0 mg/kg/injection, schedule: Q04DX003 (ip), vehicle: saline with Tween-80.
[7] abbreviates: endpoint: mean survival time, dose: 100.0 mg/kg/injection, schedule: Q01DX009 (ip), vehicle: saline with Tween-80.
Setting [8] is: endpoint: mean survival time, dose: 400.0 mg/kg/injection, schedule: Q01DX009 (ip), vehicle: saline with Tween-80.
Setting [9] is: endpoint: mean survival time, dose: 400.0 mg/kg/injection, schedule: Q04DX003 (ip), vehicle: saline with Tween-80.
Setting [10] is: endpoint: mean survival time, dose: 100.0 mg/kg/injection, schedule: Q01DX009 (ip), vehicle: saline sonified.
Where [11] appears, read: endpoint: mean survival time, dose: 200.0 mg/kg/injection, schedule: Q01DX009 (ip), vehicle: saline sonified.
[12] abbreviates: endpoint: mean survival time, dose: 400.0 mg/kg/injection, schedule: Q01DX009 (ip), vehicle: saline sonified.
Where [13] appears, read: endpoint: mean survival time, dose: 100.0 mg/kg/injection, schedule: Q04DX002 (ip), vehicle: saline with Tween-80.
[14] abbreviates: endpoint: mean survival time, dose: 200.0 mg/kg/injection, schedule: Q04DX002 (ip), vehicle: saline with Tween-80.
[15] abbreviates: endpoint: mean survival time, dose: 100.0 mg/kg/injection, schedule: Q01DX001 (ip), vehicle: saline with Tween-80.

“And” between values parts separate entries of the source, which are not always exact repeats. Equal values may be shown once. Toxic doses and inconclusive results are not listed.

On to `CC1=CC(=NN=c2cc(C)n([O-])c(C)c2)C=C(C)[N+]1=O`, for which the T/C is 104 % of control under setting [1]; 108 % of control (endpoint: mean survival time, dose: 12.5 mg/kg/injection, schedule: Q01DX009 (ip), vehicle: suspension in saline); 108 % of control under setting [2]; 110 % of control (endpoint: mean survival time, dose: 25.0 mg/kg/injection, schedule: Q01DX009 (ip), vehicle: suspension in saline); 101 % of control under setting [3]; 106 % of control (endpoint: mean survival time, dose: 50.0 mg/kg/injection, schedule: Q01DX009 (ip), vehicle: suspension in saline). The T/C by setting is: (endpoint: mean survival time, dose: 100.0 mg/kg/injection, schedule: Q01DX009 (ip), vehicle: suspension in saline) 104 % of control; under setting [4], 106 % of control; (endpoint: mean survival time, dose: 200.0 mg/kg/injection, schedule: Q01DX009 (ip), vehicle: suspension in saline) 166 % of control.
As for `O=C1N(CCO)CNC1(c1ccccc1)c1ccccc1`, the T/C is, setting by setting: (endpoint: mean survival time, dose: 50.0 mg/kg/injection, schedule: Q04DX003 (ip), vehicle: saline with Tween-80) 94 % of control; under setting [5], 107 % of control; under setting [6], 98 % of control.
Regarding `CCOC(=O)C(=CNc1ccc(C)cn1)C(=O)OCC`, the T/C under setting [7] was 93 % of control; the T/C under setting [5] is 92 % of control; the T/C under setting [4] is 98 % of control; the T/C under setting [6] was 95 % of control; the T/C under setting [8] was 97 % of control; the T/C under setting [9] is 103 % of control.
With `O=C(NCCO)NCCO`, the T/C by setting is: under setting [10], 110 % of control; under setting [11], 104 % of control; under setting [12], 110 % of control.
For `O=[N+]([O-])c1ccc(C2C3C(c4ccccc4)=NCN32)cc1` (configuration not stated), the T/C under setting [5] is 96 % of control, the T/C under setting [6] is 97 % of control and the T/C under setting [9] is 92 % of control.
With `COC(=O)C1(C)CCCC2(C)C3CC(O)C(C(C)C)=CC3(O)CCC12` (configuration not stated), the T/C is, setting by setting: under setting [7], 100 % of control; under setting [4], 96 % of control; under setting [8], 86 % of control.
In the case of `O=C(CCl)c1ccc(Cl)cc1`, the T/C (endpoint: mean survival time, dose: 12.0 mg/kg/injection, schedule: Q01DX009 (ip), vehicle: saline with Tween-80) was 102 % of control; the T/C (endpoint: mean survival time, dose: 24.0 mg/kg/injection, schedule: Q01DX009 (ip), vehicle: saline with Tween-80) is 104 % of control; the T/C (endpoint: mean survival time, dose: 48.0 mg/kg/injection, schedule: Q01DX009 (ip), vehicle: saline with Tween-80) was 103 % of control.
As to `COc1cc2cc3c4cc5c(cc4cc[n+]3c(C)c2cc1OC)OCO5` (tested in a mixture with another compound), the T/C is 122 % of control (endpoint: mean survival time, dose: 25.0 mg/kg/injection, schedule: Q04DX003 (ip), vehicle: saline); 122 % of control (endpoint: mean survival time, dose: 50.0 mg/kg/injection, schedule: Q04DX003 (ip), vehicle: saline); 92 % of control under setting [5]; 118 % of control (endpoint: mean survival time, dose: 100.0 mg/kg/injection, schedule: Q04DX003 (ip), vehicle: saline).
Consider `Cc1cc(N/N=c2/c3ccccc3n(O)c3c2ccc2ccccc23)ccc1O`, for which the T/C by setting is: under setting [5], 104 % of control; under setting [6], 104 % of control; under setting [9], 104 % of control.
Regarding `CCC[CH2][Sn]1([CH2]CCC)[O]C2C(CO)OC(n3c(Br)c(C#N)c4c(N)ncnc43)C2[O]1` (configuration not stated), the T/C reads like this: (endpoint: mean survival time, dose: 1.56 mg/kg/injection, schedule: Q01DX005 (ip), vehicle: distilled water + Tween-80) 93 % of control; (endpoint: mean survival time, dose: 3.13 mg/kg/injection, schedule: Q01DX005 (ip), vehicle: distilled water + Tween-80) 98 % of control.
In the case of `Cc1ccc2nc3c(nc2c1)-c1cccc2cccc-3c12`, the T/C was 92 % of control under setting [7], 94 % of control under setting [4] and 106 % of control under setting [8].
As for `CCCCNC1=C(C)C(=O)C2=C(C1=O)C(COC(N)=O)C1(OC)C3NC3CN21` (configuration not stated), the T/C was 102 % of control (endpoint: mean survival time, dose: 6.3 mg/kg/injection, schedule: Q01DX001 (ip), vehicle: carboxymethylcellulose (CMC)); 118 % of control (endpoint: mean survival time, dose: 9.5 mg/kg/injection, schedule: Q01DX001 (ip), vehicle: carboxymethylcellulose (CMC)); 102 % of control (endpoint: mean survival time, dose: 14.25 mg/kg/injection, schedule: Q01DX001 (ip), vehicle: carboxymethylcellulose (CMC)).
For `COc1ccc(-c2c(O)c3ccc(OC)cc3oc2=O)cc1`, the T/C under setting [2] was 96 % of control, the T/C under setting [3] was 108 % of control and the T/C under setting [7] was 108 % of control.
With `Nc1cc(=O)[nH]c(=S)[nH]1`, the T/C reads like this: under setting [13], 97 % of control; under setting [14], 105 % of control.
For `O=NNc1cnccn1`, the T/C runs as follows: (endpoint: median survival time, dose: 3.12 mg/kg/injection, schedule: Q01DX009 (ip), vehicle: water) 112 % of control; (endpoint: median survival time, dose: 6.25 mg/kg/injection, schedule: Q01DX009 (ip), vehicle: water) 113 % of control and 109 % of control; (endpoint: median survival time, dose: 8.6 mg/kg/injection, schedule: Q01DX009 (ip), vehicle: water) 121 % of control and 107 % of control; (endpoint: median survival time, dose: 11.0 mg/kg/injection, schedule: Q01DX009 (ip), vehicle: water) 121 % of control and 124 % of control; (endpoint: median survival time, dose: 12.5 mg/kg/injection, schedule: Q01DX009 (ip), vehicle: water) 120 % of control and 123 % of control; (endpoint: median survival time, dose: 14.4 mg/kg/injection, schedule: Q01DX009 (ip), vehicle: water) 116 % of control and 112 % of control. Moreover, the T/C (endpoint: median survival time, dose: 24.0 mg/kg/injection, schedule: Q01DX009 (ip), vehicle: water) was 124 % of control; the T/C (endpoint: median survival time, dose: 38.0 mg/kg/injection, schedule: Q01DX009 (ip), vehicle: water) was 221 % of control and 223 % of control; the T/C (endpoint: median survival time, dose: 40.0 mg/kg/injection, schedule: Q01DX009 (ip), vehicle: water) was 183 % of control; the T/C (endpoint: median survival time, dose: 50.0 mg/kg/injection, schedule: Q01DX009 (ip), vehicle: water) is 121 % of control; the T/C (endpoint: median survival time, dose: 100.0 mg/kg/injection, schedule: Q01DX009 (ip), vehicle: water) is 92 % of control.
With `OC1(CSc2ccccc2)CCCCC1`, the T/C reads like this: under setting [1], 98 % of control; under setting [2], 101 % of control; under setting [3], 102 % of control; under setting [7], 102 % of control; under setting [4], 104 % of control; under setting [8], 101 % of control.
For the compound `CCC1CCC(NC(C)=O)CC1` (configuration not stated), under setting [15], the T/C was 96 % of control.
In the case of `COc1cc(OC)c(NC(=O)Nc2c(C)n(C)n(-c3ccccc3)c2=O)cc1Cl`, the T/C runs as follows: under setting [1], 91 % of control; under setting [2], 97 % of control; under setting [3], 93 % of control and 97 % of control; under setting [4], 89 % of control.
`COC(=O)C(OC)c1ccc2ccccc2c1` (configuration not stated): the T/C is 98 % of control under setting [13]; 98 % of control under setting [14]; 102 % of control (endpoint: mean survival time, dose: 400.0 mg/kg/injection, schedule: Q04DX002 (ip), vehicle: saline with Tween-80).
In the case of `O=C(Nc1ccc(NC(=O)c2ccccc2)c(Sc2ccccc2)c1Sc1ccccc1)c1ccccc1`, the T/C by setting is: under setting [15], 89 % of control; (endpoint: mean survival time, dose: 200.0 mg/kg/injection, schedule: Q01DX001 (ip), vehicle: saline with Tween-80) 89 % of control; (endpoint: mean survival time, dose: 400.0 mg/kg/injection, schedule: Q01DX001 (ip), vehicle: saline with Tween-80) 86 % of control.
Regarding `C=C(c1ccccc1)c1ccc(F)cc1`, the T/C is 102 % of control under setting [10]; 100 % of control under setting [5]; 97 % of control under setting [11]; 100 % of control under setting [6]; 103 % of control under setting [12]; 102 % of control under setting [9].
Consider `OCc1ccn2c1CCC2`, for which the T/C by setting is: (endpoint: mean survival time, dose: 12.5 mg/kg/injection, schedule: Q01DX009 (ip), vehicle: Klucel (hydroxypropylcellulose) (HPC)) 101 % of control; (endpoint: mean survival time, dose: 50.0 mg/kg/injection, schedule: Q01DX009 (ip), vehicle: Klucel (hydroxypropylcellulose) (HPC)) 100 % of control; (endpoint: mean survival time, dose: 100.0 mg/kg/injection, schedule: Q01DX009 (ip), vehicle: Klucel (hydroxypropylcellulose) (HPC)) 101 % of control.
In the case of `COc1cc(-c2ccc(N=Nc3ccc4c(S(=O)(=O)O)cc(S(=O)(=O)O)c(N)c4c3O)c(OC)c2)ccc1N=Nc1ccc2c(S(=O)(=O)O)cc(S(=O)(=O)O)c(N)c2c1O`, the T/C (endpoint: mean survival time, dose: 6.25 mg/kg/injection, schedule: Q01DX009 (ip), vehicle: saline) is 100 % of control; the T/C (endpoint: mean survival time, dose: 12.5 mg/kg/injection, schedule: Q01DX009 (ip), vehicle: saline) was 100 % of control; the T/C (endpoint: mean survival time, dose: 25.0 mg/kg/injection, schedule: Q01DX009 (ip), vehicle: saline) is 105 % of control.
On to `COC(=O)NC(N)=Nc1ccccc1`, for which the T/C under setting [1] was 96 % of control and the T/C under setting [2] is 87 % of control.

For the origin of these results see PubChem BioAssay AID256 (DTP/NCI, 2004).
